Experimental data from patent publication US9528992B2, “Methods and kits for detection of active malignancy” (priority 2012, dated 2016).

What was measured:
serum albumin = biological target: T1, serum albumin (Homo sapiens, UniProt P02768); test: EPR spectroscopy of spin probe binding to primary and secondary binding sites of serum albumin in patient serum
T1 construct: from tissue; host or cells: blood serum of patients (whole blood centrifugation)
Description: At the condition of binding equilibrium in the mixture of sample aliquot, probe, and solvent, the binding efficiencies (BE1 and BE2) of specific (primary) and non-specific (secondary) hydrophobic binding sites of serum albumin can be calculated using the concentrations of the probe bound on the primary site of albumin (B1), on the secondary albumin site (B2) and unbound probe concentration (F), and solvent concentration (S) in the mixture. For example, can be calculated with either: 1/BE1=1/(Kb1·N1)=(Sc/S−1)·(F/B1)·P·(1−B1/(P·N1)) (2) 1/BE2=1/(Kb2·N2)=(Sc/S−1)·(F/B2)·P·(1−B2/(P·N2)) (3) where Sc=0.27 volume percent is the critical concentration of the solvent (as described above), P is the concentration of serum albumin in the sample, N1 is the number of specific or primary binding sites for the probe on the serum albumin molecule, N2 is the number of non-specific or secondary binding sites for the probe between the albumin on the serum albumin molecule. Generally, where the probe is a long chain fatty acid, N1=7 and N2 is from 6 to 8 for purified albumin. For native serum albumin of a healthy person N1 is from 4 to 7, and N2 is from 3 to 7. In native serum samples, typically the relative concentration of the spin probe bound on primary site, parameter B1/P, is about 0.5; and parameter B2/P is about 0.4. Therefore, the binding efficiencies BE1 and BE2 can be calculated (within about 10%) using the approximate formulas: 1/BE1=(Sc/S−1)·(F/B1)·P (2a) 1/BE2=(Sc/S−1)·(F/B2)·P (3a)
In Table 2, B1 and B2 are relative concentrations of the probe bound on primary and secondary sites of albumin, F is the relative concentration of unbound probe, B1/F and B2/F are parameters representing the binding efficiency of the primary and secondary binding sites of albumin, DP is discriminating parameter designed by square discriminant analysis using a set of probe binding parameters.
Blood serum was obtained by whole blood centrifugation. An aliquot of 50 μl of serum from each patient was used for each test. A spin probe of 2-(14-carboxytetradecyl)-2-ethyl-4,4-dimethyl-3-oxazolidinyloxy (purchased from Fluorochem Ltd., Derbyshire, UK) was mixed into the aliquot at a concentration of 1.64 mmol/l. A solvent, 14 μl of ethanol, was mixed into the aliquot. The molar ratio of the probe to serum albumin in the aliquot was 3.5, based on an albumin concentration in the serum of 4 g/dL. The mixture was then incubated for 10 min at 37° C. with continuous agitation in a standard shaker operated at about 5-8 Hz.
After incubation, the probe was placed into a glass capillary (e.g., Model No. RM-40, available from KABE LABORTECHNIK GmbH, Numbrecht-Elsenroth, Germany).
The EPR spectrum of the mixture was then measured, as described below. The above-described capillary was placed into the resonator of an EPR spectrometer for spectroscopic analysis. The spectroscopy parameters were as follows: microwave power 15 mW at frequency 9.52 GHz; magnetic field 0.34 T (3400 G) with scan range 12 mT (120 G); modulation amplitude 0.2 mT (2 G); data accumulation by three scans each with 4096 measured points and a sweep time 60 s. The capillary temperature was 37° C., and was controlled within +/−0.2° C.
The EPR spectrum was analyzed by computer using an EPR-spectrum simulation with nonlinear least-squares fits. The spectrum model included five components. The first two are the B and C components which represent portions of the probe that were bound differently on serum albumin. As shown here, the B and C components primarily differed by spectral parameters of A tensors (hyperfine splitting tensor): A∥(B)=30.02 Oe, A⊥(B)=9.02 Oe, A∥(C)=21.5 Oe, and A⊥(C)=13.35 Oe. Parameters of the g tensor used in the spectral calculations of these two components were: g∥(B)=1.9983, g⊥(B)=2.0019, g∥(C)=1.9990, and g⊥(C)=2.0013. The third D component represented the unbound spin probe residing free in the sample. The parameters of the D component were: A∥(D)=A⊥(D)=15.6 Oe, and g∥(D)=g⊥(D)=2.0008. […]

albumin = albumin (Homo sapiens, UniProt P02768); conditions: affinity of albumin for unlabeled stearic acid; cited from earlier work
[1] = cancer-free persons, Mean, serum albumin 0.47 mmol, spin probe 1.64 mmol, ethanol 0.22 volume percent
[2] = patients with active malignancies, Max
[3] = patients with active malignancies, Mean
[4] = patients with active malignancies, Mean, serum albumin 0.47 mmol, spin probe 1.64 mmol, ethanol 0.22 volume percent
[5] = patients with active malignancies, Min

T1 sequence (P02768 25-609): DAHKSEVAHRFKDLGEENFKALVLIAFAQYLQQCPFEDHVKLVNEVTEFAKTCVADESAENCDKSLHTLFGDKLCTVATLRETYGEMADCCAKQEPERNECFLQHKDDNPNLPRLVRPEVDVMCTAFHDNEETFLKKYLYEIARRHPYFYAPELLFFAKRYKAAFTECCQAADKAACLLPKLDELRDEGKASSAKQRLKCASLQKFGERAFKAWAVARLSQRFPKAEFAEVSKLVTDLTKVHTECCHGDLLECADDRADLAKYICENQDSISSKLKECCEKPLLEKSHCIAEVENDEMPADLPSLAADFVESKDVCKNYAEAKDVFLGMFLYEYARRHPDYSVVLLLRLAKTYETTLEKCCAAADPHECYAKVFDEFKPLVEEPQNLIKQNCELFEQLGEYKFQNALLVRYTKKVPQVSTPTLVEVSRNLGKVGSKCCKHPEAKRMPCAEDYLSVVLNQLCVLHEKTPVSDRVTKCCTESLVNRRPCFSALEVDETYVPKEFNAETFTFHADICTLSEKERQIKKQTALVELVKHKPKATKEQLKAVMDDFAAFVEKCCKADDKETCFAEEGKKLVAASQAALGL
Chain of albumin (P02768 25-609, species assumed): as the sequence (P02768 25-609) above

**Q.** With `CCC1(CCCCCCCCCCCCCCC(=O)O)OCC(C)(C)N1[O]` (stereo not shown) [16-doxyl stearic acid, 2-(14-carboxytetradecyl)-2-ethyl-4,4-dimethyl-3-oxazolidinyloxy] as the compound, how does the “B1, relative concentration of probe bound on primary sites of albumin” value (serum albumin; cancer-free persons, Max) read?
**A.** 0.60

**Q.** And the “B1/F, binding efficiency of primary binding sites of albumin” value (shortened to “B1/F, binding efficiency”) (serum albumin; cancer-free persons, Max)?
**A.** 54.4

**Q.** What about the “B2, relative concentration of probe bound on secondary sites of albumin” value (serum albumin; cancer-free persons, Max) of the same compound?
**A.** 0.45

**Q.** And the “B2/F, binding efficiency of secondary binding sites of albumin” value (shortened to “B2/F, binding efficiency”) (serum albumin; cancer-free persons, Max)?
**A.** 37.5

**Q.** What about the “DP, discriminating parameter” value (serum albumin; cancer-free persons, Max) of the same compound?
**A.** −0.3

**Q.** What about the “F, relative concentration of unbound probe” value (serum albumin; cancer-free persons, Max) of the same compound?
**A.** 0.044

**Q.** And the “B1/F, binding efficiency” value (serum albumin; cancer-free persons, Mean)?
**A.** 21.8

**Q.** What about the “B2/F, binding efficiency” value (serum albumin; cancer-free persons, Mean) of the same compound?
**A.** 15.8

**Q.** And the “DP, discriminating parameter” value (serum albumin; cancer-free persons, Mean)?
**A.** −3.3

**Q.** What about the “B1, relative concentration of probe bound on primary sites of albumin” value (serum albumin; [1]) of the same compound?
**A.** 0.52

**Q.** What about the “B2, relative concentration of probe bound on secondary sites of albumin” value (serum albumin; [1]) of the same compound?
**A.** 0.38

**Q.** And the “F, relative concentration of unbound probe” value (serum albumin; [1])?
**A.** 0.026

**Q.** What about the “B1, relative concentration of probe bound on primary sites of albumin” value (serum albumin; cancer-free persons, Min) of the same compound?
**A.** 0.40

**Q.** What about the “B1/F, binding efficiency” value (serum albumin; cancer-free persons, Min) of the same compound?
**A.** 10.4

**Q.** What about the “B2, relative concentration of probe bound on secondary sites of albumin” value (serum albumin; cancer-free persons, Min) of the same compound?
**A.** 0.34

**Q.** And the “B2/F, binding efficiency” value (serum albumin; cancer-free persons, Min)?
**A.** 8.5

**Q.** What about the “DP, discriminating parameter” value (serum albumin; cancer-free persons, Min) of the same compound?
**A.** −5.2

**Q.** What about the “F, relative concentration of unbound probe” value (serum albumin; cancer-free persons, Min) of the same compound?
**A.** 0.010

**Q.** What about the “B1, relative concentration of probe bound on primary sites of albumin” value (serum albumin; [2]) of the same compound?
**A.** 0.54

**Q.** What about the “B1/F, binding efficiency” value (serum albumin; [2]) of the same compound?
**A.** 11.4

**Q.** And the “B2, relative concentration of probe bound on secondary sites of albumin” value (serum albumin; [2])?
**A.** 0.38

**Q.** What about the “B2/F, binding efficiency” value (serum albumin; [2]) of the same compound?
**A.** 6.5

**Q.** What about the “DP, discriminating parameter” value (serum albumin; [2]) of the same compound?
**A.** 66.0

**Q.** And the “F, relative concentration of unbound probe” value (serum albumin; [2])?
**A.** 0.155

**Q.** And the “B1/F, binding efficiency” value (serum albumin; [3])?
**A.** 5.9

**Q.** What about the “B2/F, binding efficiency” value (serum albumin; [3]) of the same compound?
**A.** 4.5

**Q.** And the “DP, discriminating parameter” value (serum albumin; [3])?
**A.** 8.0

**Q.** What about the “B1, relative concentration of probe bound on primary sites of albumin” value (serum albumin; [4]) of the same compound?
**A.** 0.44

**Q.** What about the “B2, relative concentration of probe bound on secondary sites of albumin” value (serum albumin; [4]) of the same compound?
**A.** 0.33

**Q.** What about the “F, relative concentration of unbound probe” value (serum albumin; [4]) of the same compound?
**A.** 0.079

**Q.** And the “B1, relative concentration of probe bound on primary sites of albumin” value (serum albumin; [5])?
**A.** 0.32

**Q.** What about the “B1/F, binding efficiency” value (serum albumin; [5]) of the same compound?
**A.** 2.3

**Q.** And the “B2, relative concentration of probe bound on secondary sites of albumin” value (serum albumin; [5])?
**A.** 0.23

**Q.** What about the “B2/F, binding efficiency” value (serum albumin; [5]) of the same compound?
**A.** 1.6

**Q.** What about the “DP, discriminating parameter” value (serum albumin; [5]) of the same compound?
**A.** 0.1

**Q.** What about the “F, relative concentration of unbound probe” value (serum albumin; [5]) of the same compound?
**A.** 0.047

**Q.** With `CCCCCCCCCCCCCCCCCC(=O)O` [stearic acid] as the compound, how does the binding constant (albumin) read?
**A.** about 10^9 mol^−1
